Blank lines part the entries; values can stand above or below the compound they belong to.
Assays:
[1] = Pharmacokinetics in CD-1 mice; format: in vivo, mouse; settings: for F / AUC / Cmax / half-life: CD-1 mice; for F: 10 mg/kg P.O. vs 2 mg/kg i.v.; for AUC / Cmax / half-life: mouse, plasma, 2 mg/kg i.v. or 10 mg/kg P.O.; for pharmacokinetic properties as measured by CMAX, AUC and F (%): compared with other SERCA modulators, see Table 6
Procedure: Pharmacokinetics of test compounds were assessed in CD-1 mice. The compounds were formulated at 1 mg/mL in DMSO/Tween 80/water (10/10/80, vol/vol/vol) and dosed at 2 mg/kg intravenous (i.v.) or 10 mg/kg by oral gavage (P.O.) in triplicate. Blood was drawn at 0.25 h, 0.5 h, 1 hr, 2 hrs, 4 hrs, 8 hrs, and 24 hrs into EDTA containing tubes and plasma was harvested by centrifugation. Plasma (10 μL) containing 50% acetonitrile in water (5 μL) was added to 200 μL of ACN containing an internal standard. The samples were vortexed for 30 s. After centrifugation at […] and 4,000 rpm for 15 min, the supernatant was diluted 3 times with water. Then, 20 μL of diluted supernatant was injected into the LC/MS/MS system for quantitative analysis. The samples were injected onto an Agilent ZORBAX XDB-Phenyl 5μ column (50×2.10 mm). Mobile Phase A was water with 0.1% formic acid. Mobile Phase B was acetonitrile with 0.1% formic acid. Separation was achieved using a gradient of 70% A/30% B to 0% A/100% B over 2.10 min. A Shimadzu LCMS-8050 equipped with a turbo ion spray source was used for all analytical measurements. A positive ion MRM method was developed. Peak areas of the product ion were measured against the peak areas of the internal standard. Data was fit using WinNonLin (Pharsight Corporation, Mountain View, CA).

human islet microtissues = assay: Protection of human pancreatic islets under cytokine stress; format: cell-based; settings: 168 h, compound 5 μM, cytokine cocktail IL1-β, IFN-γ, TNF-α, 7 days, read-out: increase in viability over baseline (total ATP content)
Procedure: Human pancreatic islet microtissues treated with cytokines were used to model the conditions of Type 1 Diabetes in vitro. This study tested the effects of compounds on […] viability in human islets under cytokine stress. The model consisted of human islet microtissues from an HLA-A2 positive donor grown and separated in a 96-well plate (1 microtissue per well). The microtissues were treated for 7 days with a cocktail of cytokines (IL1-β 5 ng/mL, IFN-γ 25 ng/mL, TNF-α 25 ng/mL) and compound (5 μM) or vehicle. There were 6 microtissues treated per compound or vehicle. At day 7, the total ATP content was measured using CellTiter-Glo (Promega).

Ca^2+-ATPase = assay: Ca2+-ATPase assay, microsomal preparations from HEK 293 cells; format: biochemical, human
Procedure: A Ca^2+-ATPase assay was performed using microsomal preparations from HEK 293 cells at a series of calcium concentrations corresponding to the physiological range, relative to controls. The ATP hydrolysis rate was measured over a range of calcium concentrations in the presence of test compounds using an NADH-linked, enzyme-coupled ATPase assay adapted for 96-well microplates, with Vmax determined by fitting the ATPase calcium-dependence to the Hill function. […] CaCl2 was added to set free [Ca^2+] to the specific values.

[2] = Pharmacokinetics in Beagle dogs; format: in vivo; settings: dog; for MRT inf: read-out: MRT0-∞
Procedure: Pharmacokinetics of compound A13 was assessed in dogs. […] For pharmacokinetic evaluation, 3 male Beagle dogs were intravenously (IV) dosed (1 mg/kg body weight) and 3 male Beagle dogs were orally (PO) dosed (10 mg/kg body weight) with a test compound. Blood (approximately 1.0 mL) was collected via femoral vein into tubes containing K3EDTA anticoagulant at 0, 0.017, 0.083, 0.5, 1, 2, 4, 6, 8, and 24 hours post-dosing. Plasma samples were analyzed by LC-MS/MS. The analytical results were confirmed using quality control samples for intra-assay variation. The accuracy of >66% of the quality control samples was between 80-120% of the known value(s). A standard set of pharmacokinetic parameters were generated from concentration data including Area Under the Curve (AUC0-t and AUC0-inf), elimination half-lives, clearances, volume of distribution and bioavailabilities (based on AUC0-t), maximum plasma concentration (C0; Cmax), and time to reach maximum plasma concentration (Tmax).

SERCA (SR vesicles) = assay: Activation of SERCA, increase in Vmax; format: biochemical
[3] = Pharmacokinetics in Sprague Dawley rats; format: in vivo, rat; settings: rat; for AUC(0-t): read-out: AUC0-t; for MRT inf: read-out: MRT0-∞
Procedure: Blood was drawn at 5 min, 15 min, 30 min, 1 hr, 2 hrs, 4 hrs, 6 hrs, and 8 hrs into EDTA containing tubes and plasma was harvested by centrifugation. Plasma (25 μL) was treated with acetonitrile (125 μL) containing an internal standard. The sample was then centrifuged for 5 min at 4,000 rpm in a tabletop centrifuge and the filtrate was collected. The filtrate was injected onto a Thermo Betasil C18 HPLC column 5 (50×2.1 mm). Mobile Phase A was water with 0.1% formic acid. Mobile Phase B was acetonitrile with 0.1% formic acid. […] An API Sciex 4000 equipped with a turbo ion spray source was used for all analytical measurements. A positive ion MRM method was developed. Peak areas of the product ion were measured against the peak areas of the internal standard. Data was fit using WinNonLin (Pharsight Corporation, Mountain View, CA).

CSM14.1 cells = assay: ER stress cell survival assay (thapsigargin); format: cell-based; settings: compound 2 μM; about 15 μM thapsigargin; CSM14.1 cells;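 note: survival read as CellTiter-Glo luminescence after overnight incubation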
N2a cells [4] = assay: Protection against hydrogen peroxide-induced cell death, N2a; format: cell-based, mouse; settings: compound 40 μM; hydrogen peroxide 200 μM
Method in brief: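 N2a cells were pretreated 2 h with compound at 40 μM, then exposed to 200 μM H2O2 for 40 min. AlamarBlue (10% v/v) was added and fluorescence read 2 h later. Viability expressed as % RFU of control, reported as % cell rescue.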

N2a cells [5] = assay: Protection against thapsigargin (TG)-induced cell death, N2a; format: cell-based, mouse; settings: compound 20 μM; thapsigargin 1 μM; 24 hrs
Procedure: (§1) Protection against Thapsigargin (TG)-induced Cell-death. Human embryonic kidney (HEK293) cells were grown in Dulbecco's Modified Eagle's Medium (DMEM) with 10% FBS and 1% antibiotic antimycotic solution (ABAM). Mouse neuroblastoma (N2a) cells were grown in 1:1 DMEM:OPTI-MEM® with 5% FBS and 1% ABAM. All cells were grown in 10% CO2 in a humidified environment of the incubator. Cells grown in 96-well plates were exposed to a test compound (20 μM) for 2 hrs before addition of thapsigargin (15 μM for HEK293 cells and 1 μM for N2a cells) to induce ER stress. After incubation in cell-culture incubator for 24 hrs, ALAMARBLUE® regent (10% v/v) was added to the wells. Fluorescence reading was taken 2 hrs after the addition of the ALAMARBLUE® regent. Cell-viability was calculated as a percentage of relative fluorescence unit (RFU) compared to control.
(§2) The results are summarized in Table 2, where A represents a value greater than 50% cell rescue, B represents a value between 10% to 50% cell rescue, C represents a value between 1% to 10% cell rescue, and D represents a value no greater than 1% cell rescue.

ob/ob mice = assay: Effect on the level of blood glucose in ob/ob mice; format: in vivo, mouse; settings: for blood glucose: 10 or 50 mg/kg i.p. once a day for 5 days, as early as day 2; for glucose level after the last injection: for over a week after the last injection
Procedure: Fasting glucose was measured at baseline and 10 hours after the administration of the test compound. Glucose levels were measured in blood samples drawn from the tail vein using the OneTouch Ultra 2 Meter (LifeScan, Inc.).

HEK293 cells = assay: Protection against thapsigargin (TG)-induced cell death, HEK293; format: cell-based, human; settings: compound 20 μM; thapsigargin 15 μM; 24 hrs
Procedure: as §1, §2

[6] = male, Beagle, plasma, IV 1 mg/kg
[7] = male, Beagle, plasma, PO 10 mg/kg
[8] = Sprague Dawley, in vivo, IV 2 mg/kg
[9] = Sprague Dawley, in vivo, PO 10 mg/kg

F [1]: 3.1% | AUC [1]: 26 ng·h/mL | Cmax [1]: 120 nM | half-life [1]: 50.4 min | F ([2]; PO 10 mg/kg vs IV 1 mg/kg): 1.4% | AUC(0-inf) [2, 6]: 96 ± 12 ng·h/mL | AUC(0-t) [2, 6]: 95 ± 12 ng·h/mL | Cmax [2, 6]: 2200 ± 500 nM | Tmax [2, 6]: 1.2 min | clearance [2, 6]: 177 mL/min/kg | half-life [2, 6]: 20.4 min | MRT inf [2, 6]: 12.6 min | Vd ([2]; male, Beagle, plasma, IV 1 mg/kg, read-out: Vz): 5.4 L/kg | Cmax [2, 7]: 80 ± 60 nM | Tmax [2, 7]: 21.6 min | half-life [2, 7]: 22.2 min | MRT inf [2, 7]: 37.2 min | AUC(0-inf) [3, 8]: 847 ± 29 ng·h/mL | Cmax [3, 8]: 8370 ± 1100 nM | Tmax [3, 8]: 4.8 min | clearance [3, 8]: 39.3 mL/min/kg | half-life [3, 8]: 121 min | AUC(0-t) [3, 8]: 842 ± 31 ng·h/mL | MRT inf [3, 8]: 27 min | Vd ([3]; Sprague Dawley, in vivo, IV 2 mg/kg, read-out: Vz): 6.87 L/kg | AUC(0-inf) [3, 9]: 234 ± 154 ng·h/mL | Cmax [3, 9]: 800 ± 350 nM | Tmax [3, 9]: 25.2 min | half-life [3, 9]: 22.8 min | AUC(0-t) [3, 9]: 232 ± 154 ng·h/mL | MRT inf [3, 9]: 38.4 min | F ([3]; PO 10 mg/kg vs IV 2 mg/kg): 5.5%
Compound: Cc1ccc2cccc(NC(=O)c3cccc(OC(C)C)c3)c2n1 [Compound A13, 3-Isopropoxy-N-(2-methylquinolin-8-yl)benzamide]
viability at 5 µM (human islet microtissues): 20 to 50% | increase in baseline ATPase activity (Ca^2+-ATPase): 10-15% | Increase in Vmax at 10 μM (SERCA (SR vesicles)): B′ (B′ represents an increase between 20 to 50%)

F [1]: 28% | AUC [1]: 330 ng·h/mL | Cmax [1]: 860 nM | half-life [1]: 39.6 min
Compound: Cc1ccc2cccc(NC(=O)c3ccc(NC(C)C)cc3)c2n1 [Compound C20, 4-(Isopropylamino)-N-(2-methylquinolin-8-yl)benzamide]
pharmacokinetic properties as measured by CMAX, AUC and F (%) [1]: significantly improved pharmacokinetic properties | Cell Survival (CSM14.1 cells): A (A represents a value greater than 50%) | N2a Cells (H2O2-induced) cell rescue (N2a cells [4]): B (B represents a value between 10% to 50% cell rescue) | N2a Cells (TG-induced) cell rescue (N2a cells [5]): B (B represents a value between 10% to 50% cell rescue) | blood glucose (ob/ob mice): significantly lowered | glucose level after the last injection (ob/ob mice): identical to lean mice | viability at 5 µM (human islet microtissues): 20 to 50% | increase in baseline ATPase activity (Ca^2+-ATPase): greater than 15% | HEK293 Cells (TG-induced) cell rescue (HEK293 cells): B (B represents a value between 10% to 50% cell rescue)

F [1]: 27% | AUC [1]: 344 ng·h/mL | Cmax [1]: 850 nM | half-life [1]: 138 min
Compound: CCNc1ccc(C(=O)Nc2cccc3ccc(C)nc23)cc1 [Compound C19, 4-(Ethylamino)-N-(2-methylquinolin-8-yl)benzamide]
pharmacokinetic properties as measured by CMAX, AUC and F (%) [1]: significantly improved pharmacokinetic properties | Cell Survival (CSM14.1 cells): A (A represents a value greater than 50%) | N2a Cells (H2O2-induced) cell rescue (N2a cells [4]): A (A represents a value greater than 50% cell rescue) | N2a Cells (TG-induced) cell rescue (N2a cells [5]): B (B represents a value between 10% to 50% cell rescue) | blood glucose (ob/ob mice): significantly lowered | glucose level after the last injection (ob/ob mice): identical to lean mice | viability at 5 µM (human islet microtissues): 20 to 50% | increase in baseline ATPase activity (Ca^2+-ATPase): 10-15% | HEK293 Cells (TG-induced) cell rescue (HEK293 cells): A (A represents a value greater than 50% cell rescue)

From patent US11890279B2, “Quinolines that modulate SERCA and their use for treating disease” (Neurodon Corporation, priority 2020, dated 2024)
